# Experimental data reported in publication PMC2649009 (Journal of medicinal chemistry, 2008).
# “And” between values parts separate entries of the source, which are not always exact repeats. Equal entries are not always repeated.
# Biological target: T1, human GVIA iPLA2 (Homo sapiens, UniProt O60733)
# T1 sequence (O60733 1-806): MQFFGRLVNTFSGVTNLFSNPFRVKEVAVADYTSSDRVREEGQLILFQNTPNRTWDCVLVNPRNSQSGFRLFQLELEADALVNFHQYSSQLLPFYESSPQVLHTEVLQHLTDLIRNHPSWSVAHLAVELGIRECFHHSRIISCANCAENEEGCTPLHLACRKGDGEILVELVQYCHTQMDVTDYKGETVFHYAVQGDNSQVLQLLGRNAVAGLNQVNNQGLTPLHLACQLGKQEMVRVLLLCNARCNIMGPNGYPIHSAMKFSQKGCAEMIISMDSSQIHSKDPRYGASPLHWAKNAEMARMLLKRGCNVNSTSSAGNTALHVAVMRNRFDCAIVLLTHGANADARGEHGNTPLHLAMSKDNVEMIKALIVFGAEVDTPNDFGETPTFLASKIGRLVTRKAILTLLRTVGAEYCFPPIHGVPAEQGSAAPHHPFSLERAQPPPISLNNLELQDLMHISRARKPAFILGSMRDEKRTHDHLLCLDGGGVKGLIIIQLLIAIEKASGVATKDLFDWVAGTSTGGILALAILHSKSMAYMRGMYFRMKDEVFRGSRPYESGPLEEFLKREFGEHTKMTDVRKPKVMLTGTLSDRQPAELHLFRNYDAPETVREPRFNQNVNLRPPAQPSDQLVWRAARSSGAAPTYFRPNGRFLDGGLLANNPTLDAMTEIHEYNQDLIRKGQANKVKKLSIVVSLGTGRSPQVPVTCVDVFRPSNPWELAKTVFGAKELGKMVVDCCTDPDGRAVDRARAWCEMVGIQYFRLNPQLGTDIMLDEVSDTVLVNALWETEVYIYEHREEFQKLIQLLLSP
# Assay: mixed micelle-based modified Dole assay, GVIA iPLA2 inhibition
# Type: biochemical
# Conditions: mole fraction of inhibitor in total substrate interface giving 50% inhibition
row,Structure (SMILES),GVIA iPLA2 XI(50)
1,"O=C(CCCCCc1ccccc1)C(F)(F)F [12a, 1,1,1-Trifluoro-7-phenylheptan-2-one]",0.0025 mole fraction
2,"CCCCCCOc1ccc(CCC(=O)C(F)(F)F)cc1 [19a, 1,1,1-Trifluoro-4-(4-hexyloxy-phenyl)-butan-2-one]",0.0328 ±0.0035 mole fraction
3,"O=C(CCCCc1ccccc1)C(F)(F)C(F)(F)F [10a, 1,1,1,2,2-Pentafluoro-7-phenyl-heptan-3-one]",0.0073 mole fraction and 0.0073 ± 0.0007 mole fraction
4,"O=C(CCCCCCc1ccccc1)C(F)(F)C(F)(F)F [10c, 1,1,1,2,2-Pentafluoro-9-phenyl-nonan-3-one]",0.0065 mole fraction
5,"CCCCCCOc1ccc(CCC(=O)C(F)(F)C(F)(F)F)cc1 [compound 21, 1,1,1,2,2-Pentafluoro-5-(4-hexyloxy-phenyl)-pentan-3-one]",0.0075 mole fraction
6,"CCCCCCCCCCCCCCC(F)C(=O)C(F)(F)F (stereo not shown) [compound 26, 1,1,1,3-Tetrafluoro-heptadecan-2-one]",0.0011 mole fraction
7,"O=C(CCCCCc1ccccc1)C(F)(F)C(F)(F)F [10b, 1,1,1,2,2-Pentafluoro-8-phenyl-octan-3-one]",0.0065 mole fraction
8,"CCCCCCCCCCCCCCCC(=O)C(F)(F)F [compound 6, palmitoyl trifluoromethyl ketone, reference compound]",0.0195 mole fraction
9,"O=C(CCCCCCc1ccccc1)C(F)(F)F [12b, 1,1,1-Trifluoro-8-phenyloctan-2-one]",0.0018 mole fraction

# Same assay, conditions: ratio of XI(50) values, 26 vs 6
row,Structure (SMILES),potency as inhibitor of GVIA iPLA2 relative to trifluoro derivative 6
1,"CCCCCCCCCCCCCCC(F)C(=O)C(F)(F)F (stereo not shown) [compound 26, 1,1,1,3-Tetrafluoro-heptadecan-2-one]",approximately twenty-fold
